Experimental data taken from patent US11413278B2, “Compounds and methods for promoting stress resistance” (priority 2015, dated 2022).
Where two headings read alike, the source gives them in different places.

Experiments:
C. elegans = C. elegans lifespan assays (liquid and plate); format: in vivo, Caenorhabditis elegans; settings: Caenorhabditis elegans, at 66 uM
[1] = tested on: human dermal fibroblast (HDF) primary cells; test: H2O2-resistance in primary human dermal fibroblasts; format: cell-based; settings: YES/NO
FOXO3 = test: qPCR analysis of FOXO3-regulated genes; format: cell-based, human; settings: Homo sapiens, 24 h, Assay 10(m), at 10 uM, qPCR
Method: (§1) For qPCR analysis, WI-38 cells were treated with small molecules (at 10 μM) (biological quadruplicates) for 24 hrs and processed for RNA isolation and reverse transcription (RT) with the Cells-to-Ct Kit (Life Technologies), following manufacturer's instructions. RT products were diluted with H2O and used for qPCR analysis on an ABI 7300 system (Life Technologies) (technical triplicates). Relative expression levels of target genes were normalized to the genes B2M, PPIA and GAPDH. To knock down the expression of FOXO3 or NRF2, WI-38 cells were transfected, using the RNAiMAX reagents (Life Technologies), with siRNA oligos (at 10 nM final concentration, 10 ml culture medium) for FOXO3 (Life Technologies) or NRF2 (Integrated DNA Technologies) on 10-cm petri dishes for 36 hrs, and then detached and aliquoted onto 96-well (for qPCR analysis) or 384-well plates (for H2O2-stress treatment). ˜24 hrs later, small molecules were introduced and incubated with cells for 24 hrs. Cells were then either processed with the Cells-to-Ct Kit to prepare RT products for qPCR analysis or subjected to H2O2 (700 μM) for 3 hrs and assayed for viability. The knockdown efficiency of FOXO3 or NRF2 was checked at 36 hrs post-transfection and at the end as well.
(§2) For qPCR analysis, WI-38 cells were treated with small molecules (at 10 μM) (biological quadruplicate) for 24 hrs and processed for RNA isolation and reverse transcription (RT) with the Cells-to-Ct Kit (Life Technologies), following manufacturer's instructions. RT products were diluted with H2O and used for qPCR analysis on a LightCycler 480 system (Roche) (technical triplicates). Relative expression levels of target genes were normalized to the genes B2M, PPIA and GAPDH. To knock down the expression of FOXO3 or NRF2, WI-38 cells were transfected with siRNA oligos (at 10 nM final concentration) for FOXO3 (Life Technologies) or NRF2 on 10-cm petri dish for 36 hrs, and then detached and aliquoted onto 96-well plates. ˜24 hrs later, small molecules were introduced and incubated with cells for 24 hrs. Cells were then processed with the Cells-to-Ct Kit to prepare RT products for qPCR analysis. The knockdown efficiency of FOXO3 or NRF2 was checked at 36 hrs post-transfection and at the end as well.
Many perturbations that increase lifespan and stress resistance in animals do so in a FOXO-dependent fashion (Kenyon, 2010c). Humans have several FOXO genes, but FOXO3, which promotes stress resistance in mammalian cell culture (Kops et al., 2002; Nemoto and Finkel, 2002; Tran et al., 2003), is the one that has been linked to exceptional longevity in humans (Anselmi et al., 2009; Flachsbart et al., 2009; Li et al., 2009; Pawlikowska et al., 2009; Soerensen et al., 2010; Willcox et al., 2008). FOXO1, in contrast, appears to be responsible for some symptoms of diabetes in mouse models (Cheng and White, 2011). For this reason, applicants have focused on analyzing potential ability of our small molecules to activate FOXO3. […] Another 4 molecules (Gr-7A, Gr-7C, O12 and O23) could induce robust expression (greater than 1.5-fold) of at least 2 FOXO3 target genes.

WI-38 cells [2] = settings: for Assay 1: H2O2-resistant: YES/NO, if NO, possibly due to repeated freezing/thawing of stocks; for EC50: read-out: Est. ED50
NRF2 [3] = test: qPCR analysis of NRF2-regulated genes; format: cell-based, human; settings: Homo sapiens, 24 h, Assay 12(o), at 10 uM, qPCR
Method: as §1, §2
NRF2/SKN-1, the oxidative stress and xenobiotic phase 2 detoxification protein, can extend animal lifespan (Sykiotis and Bohmann, 2008; Tullet et al., 2008). Applicants analyzed these small molecules for their ability to increase the expression of NRF2-regulated genes, including HMOX1 (heme oxygenase (decycling) 1; anti-oxidant), NQO1 (NAD(P)H dehydrogenase, quinone 1; phase 2 detoxification enzyme), GCLC (glutamate-cysteine ligase, catalytic) and GSTM1 (glutathionine S transferase) (Hur and Gray, 2011; Suzuki et al., 2013).

WI-38 cells [4] = test: CdCl2 (cadmium) resistance assay; format: cell-based, human; settings: YES/NO; for Assay 2: Cadmium-resistant: * indicates partial
Method: (§3) For many stress conditions tested previously, one significant correlation to longevity is the cellular resistance to H2O2 or CdCl2. Applicants then tested these small molecules, at five different final concentrations (0.25 μM to 20 μM), for cadmium and MMS resistance in WI-38 cells.
(§4) The setups on 384-well plates and incubation times were the same as for H2O2 until the time of incubation with the stressors, which was 12 hours for both cadmium and MMS assays. Applicants tested several conditions, including conditions used to assay fibroblasts from long-lived animals (Salmon et al., 2005). These conditions produced better results with the positive controls (KEAP1 and AKT1 siRNAs) in the MMS assay. Thus, for MMS, the cells were shifted from growth media—OptiMEM+10% FBS, to DMEM (Gibco)+2% BSA (no serum) just before adding small molecules, which occurred 24 hours before MMS addition.
(§5) Isolated small molecules were tested for MMS and cadmium resistance twice in two independent assays. Each small molecule was analyzed at five different concentrations (0.25 μM to 20 μM final concentration), with technical triplicates for each dose. Data were analyzed using a global variance t-test.

WI-38 cells [5] = test: MMS resistance assay; format: cell-based, human; settings: YES/NO; for Assay 3: MMS-resistant: * indicates partial; for Assay 5: Triple resistant: H2O2, cadmium and MMS
Method: as §3, §4, §5

NRF2 [6] = test: in vitro; format: cell-based, human; settings: 10 uM; YES/NO
Method: as §1, §2
Of these, O15 and O20 consistently (in 3 of 3 experiments) required NRF2 to promote H2O2-resistance, and their resistance capacities were reduced by ˜90% on average upon NRF2 knockdown under conditions tested.

WI-38 cells [7] = settings: Assay 8(k); without H2O2, at 10 uM
Method: WI-38 cells were seeded on 384-well plates for 24 hrs and then incubated with small molecules for 24 hrs. […] Images were collected on an INCell Analyzer 2000 (GE) and analyzed with the Developer software.

mTOR = mTOR inhibition (RPS6 phosphorylation status), In-Cell Western; format: cell-based, human
Method: In-Cell Western assays were performed, following a standard immuno-staining protocol. Briefly, WI-38 cells were treated with small molecules for 24 hrs, and then processed and incubated with primary antibody cocktail (Cell Signaling, mouse anti-RPS, 1:25; rabbit-anti-pRPS6-(Ser-235/236), 1:100) overnight at 4° C. Next day, samples were processed and incubated with fluorophore-conjugated secondary antibodies (Cell Signaling, DyLight 680-goat anti-mouse, 1:500; DyLight 800-goat anti-rabbit, 1:1,000). Images were collected on an Odyssey Imager (LI-COR) and analyzed with the Image Studio Lite software (version 5.0.21).
Mammalian target of rapamycin (mTOR) is a crucial regulator of cell growth and metabolism and has been implicated in aging and many diseases, including cancer, diabetes and neurological diseases (Dazert and Hall, 2011; Zoncu et al., 2011). […] In addition, the anti-diabetes drug metformin (Kalender et al., 2010), as well as other AMPK activators such as 2-deoxy-D-glucose (Inoki et al., 2003) and AICAR (Shaw et al., 2004), could inhibit mTORC1. Applicants examined the effects of our molecules (at three doses, 5 μM, 10 μM and 20 μM) on the phosphorylation status of ribosomal protein S6 (RPS6), a readout of mTOR activity, to ask whether they could inhibit mTOR.
In-Cell Western assays were performed, following the same procedures to analyze DNA-damage markers. WI-38 cells were incubated with small molecules for 24 hrs, and then processed and incubated with primary antibody cocktail (mouse anti-RPS, 1:25; rabbit-anti-pRPS6, 1:100) overnight at 4° C. Next day, samples were processed and incubated with fluorophore-conjugated secondary antibodies (goat anti-mouse, 1:500; goat anti-rabbit, 1:1,000) in antibody dilution buffer. Images were collected on an Odyssey Imager (LI-COR) and analyzed with the Image Studio Lite software.

[8] = Assay 2(z), 1.0 × 10^9 bacteria/ml, wild type + FuDR (2012 July), read-out: Lifespan assay in liquid
[9] = Assay 3(aa), 2.5 × 10^9 bacteria/ml, wild type + FuDR, read-out: Lifespan assay in liquid
[10] = read-out: Induction of FOXO3-regulated genes: SESN1 normalized fold-change
[11] = read-out: Induction of FOXO3-regulated genes: TXNIP normalized fold-change
[12] = dose response 0.6-20 μM, H2O2-resistance
[13] = read-out: Induction of NRF2-regulated genes: GSTM1 normalized fold-change
[14] = read-out: Induction of NRF2-regulated genes: HMOX1 normalized fold-change
[15] = read-out: Induction of NRF2-regulated genes: NQO1 normalized fold-change
[16] = Assay 4(ab), 2.0 × 10^10 bacteria/ml, CF512 worms, no FuDR, read-out: Lifespan assay on plates
[17] = read-out: Induction of FOXO3-regulated genes: GADD45A normalized fold-change

## Oc1nc(-c2ccccn2)nc2c1Cc1cc(F)ccc1O2 [O24]
C. elegans; [8]
  ILS at 66 µM: 13%
C. elegans; [9]
  ILS at 66 µM: 2.3%
[1]
  Assay 6: H2O2-resistant, at 10 uM, human dermal fibroblast (HDF) primary cells: YES
FOXO3; [10]
  fold induction at 10 µM: 1.93
FOXO3; read-out: Induction of FOXO3-regulated genes: SOD2 normalized fold-change
  fold induction at 10 µM: 1.2
FOXO3; [11]
  fold induction at 10 µM: 0.61
WI-38 cells [2]
  Assay 1: H2O2-resistant: YES
WI-38 cells [2]; [12]
  EC50: 7.5 µM
NRF2 [3]; read-out: Induction of NRF2-regulated genes: GCLC normalized fold-change
  fold induction at 10 µM: 0.7
NRF2 [3]; [13]
  fold induction at 10 µM: 1.24
NRF2 [3]; [14]
  fold induction at 10 µM: 9.55
NRF2 [3]; [15]
  fold induction at 10 µM: 1.48
WI-38 cells [4]
  Assay 4: H2O2- & Cd-resistant: YES
  Assay 2: Cadmium-resistant: YES
WI-38 cells [5]
  Assay 3: MMS-resistant: YES
  Assay 5: Triple resistant: YES

## Oc1cc(-c2ccccc2)nc2c(-c3ccc(Cl)cc3)c(Cc3ccccc3)nn12 [O26]
C. elegans; [8]
  ILS at 66 µM: 23.9%
C. elegans; [9]
  ILS at 66 µM: 4.6%
C. elegans; [16]
  ILS at 66 µM: 27.1%
C. elegans; Assay 5(ac), 1.0 × 10^11 bacteria/ml, CF512 worms, no FuDR, read-out: Lifespan assay on plates
  ILS at 66 µM: 8.3%
FOXO3; [17]
  fold induction at 10 µM: 3.36
FOXO3; [10]
  fold induction at 10 µM: 2.21
FOXO3; [11]
  fold induction at 10 µM: 1.16
WI-38 cells [2]; [12]
  EC50: 20 µM
NRF2 [3]; [13]
  fold induction at 10 µM: 0.85
NRF2 [3]; [15]
  fold induction at 10 µM: 0.44
NRF2 [6]
  Assay 17: NRF2-dependency for H2O2-resistance: YES

## O=C(CC1(O)C(=O)Nc2ccc(Br)cc21)c1ccc(Cl)cc1 (stereo not drawn) [O19]
[1]
  Assay 6: H2O2-resistant, at 10 uM, human dermal fibroblast (HDF) primary cells: YES
FOXO3; [17]
  fold induction at 10 µM: 0.84
WI-38 cells [2]; [12]
  EC50: 20 µM
NRF2 [3]; [15]
  fold induction at 10 µM: 1.91

## Cc1ccc(S(=O)(=O)/C(C#N)=C/c2c(Oc3ccc(Cl)c(C)c3)nc3ccccn3c2=O)cc1 [Gr-5C]
C. elegans; [8]
  ILS at 66 µM: 32.6%
C. elegans; [9]
  ILS at 66 µM: 1.6%
C. elegans; [16]
  ILS at 66 µM: -6.9%
[1]
  Assay 6: H2O2-resistant, at 10 uM, human dermal fibroblast (HDF) primary cells: YES
WI-38 cells [7]
  PI cell-death imaging without H2O2 (indicating potential toxicity): YES
WI-38 cells [2]; [12]
  EC50: 15.7 µM
NRF2 [3]; [14]
  fold induction at 10 µM: 1.67
NRF2 [3]; [15]
  fold induction at 10 µM: 1.49

## Oc1nc2ccccc2n2cccc12 [O4]
[1]
  Assay 6: H2O2-resistant, at 10 uM, human dermal fibroblast (HDF) primary cells: YES
WI-38 cells [2]
  Assay 1: H2O2-resistant: YES
  EC50: 11.2 µM
NRF2 [6]
  Assay 17: NRF2-dependency for H2O2-resistance: YES
WI-38 cells [4]
  Assay 4: H2O2- & Cd-resistant: YES
  Assay 2: Cadmium-resistant: YES
WI-38 cells [5]
  Assay 3: MMS-resistant: YES
  Assay 5: Triple resistant: YES

## CO[C@H]1C[C@@H]2CC[C@@H](C)[C@@](O)(O2)C(=O)C(=O)N2CCCC[C@H]2C(=O)O[C@H]([C@H](C)C[C@@H]2CC[C@@H](O)[C@H](OC)C2)CC(=O)[C@H](C)/C=C(\C)[C@@H](O)[C@@H](OC)C(=O)[C@H](C)C[C@H](C)/C=C/C=C/C=C/1C [rapamycin, reference compound]
mTOR
  Reduction of ratio of pRPS6/RPS6 by rapamycin: ≥ 90%
mTOR; control
  Reduction of phosphorylated form of RPS6 by rapamycin (normalized): 95%

## O=C(O)c1cc(Cl)c(Cl)cc1C(=O)Nc1ccccc1 [O25]
[1]
  Assay 6: H2O2-resistant, at 10 uM, human dermal fibroblast (HDF) primary cells: YES
WI-38 cells [2]; [12]
  EC50: 8.5 µM
